Where two headings read alike, the source gives them in different places.
Tests used:
[1] = test system: Human aortic endothelial cells; assay: Prevention of LDL-induced monocyte chemotactic activity by pre-treatment (pre-incubation) of artery wall cells; type: cell-based; settings: pre-incubation 6 hrs, washed, then control human LDL 200 μg protein/ml overnight; relative to D-4F (FIG. 2)
Method: FIG. 2 illustrates a comparison of the effect of D-4F with the effect of D-J336 on the prevention of LDL induced monocyte chemotactic activity in a pre-incubation. Human aortic endothelial cells were pre-incubated with D-J336 or D-4F at 4, 2, and 1 μg/ml for DJ336 or 100, 50, 25, and 12.5 μg/ml for D-4F for 6 hrs. The cultures were then washed and were incubated with medium alone (no addition), or with control human LDL (200 μg protein/ml), or with control human LDL+control human HDL (350 μg HDL protein/ml) as assay controls. The wells that were pre-treated with peptides received the control human LDL at 200 μg protein/ml. Following overnight incubation, the supernatants were assayed for monocyte chemotactic activity.

[2] = test system: LDL receptor null mice; assay: HDL protective capacity in LDL receptor null mice given peptide in drinking water; type: in vivo
Method: D-4F designated as F, or the apoJ peptide made from D amino acids (D-J336, designated as J) was added to the drinking water of LDL receptor null mice (4 per group) at 0.25 or 0.5 mg per ml of drinking water. After 24- or 48-hrs blood was collected from the mice and their HDL was isolated and tested for its ability to protect against LDL-induced monocyte chemotactic activity. Assay controls included culture wells that received no lipoproteins (no addition), or control human LDL alone (designated as LDL, 200 μg cholesterol/ml), or control LDL+control human HDL (designated as +HDL, 350 μg HDL cholesterol). For testing the mouse HDL, the control LDL was added together with mouse HDL (+F HDL or +J HDL) to artery wall cell cultures. The mouse HDL was added at 100 μg cholesterol/ml respectively.

[3] = test system: apo E null mice; assay: Protection against LDL-induced monocyte chemotactic activity by HDL from apo E null mice given oral peptides; type: in vivo; settings: for potency compared with D-4F in enhancing HDL protective capacity: apo E null mice, added to the drinking water (FIG. 4)
Method: FIG. 4 illustrates the effect of oral apoA-1 peptide mimetic and apoJ peptide on HDL protective capacity. […] After 24 hrs blood was collected, plasma fractionated by FPLC and fractions containing LDL (designated as mLDL for murine LDL) and fractions containing HDL (designated as mHDL) were separately pooled and HDL protective capacity against LDL oxidation as determined by LDL-induced monocyte chemotactic activity was determined. For the assay controls the culture wells received no lipoproteins (no additions), mLDL alone (at 200 μg cholesterol/ml), or mLDL+standard normal human HDL (designated as Cont. h HDL, at 350 μg HDL cholesterol/ml).
For testing the murine HDL, mLDL together with murine HDL (+F mHDL or +J mHDL) were added to artery wall cell cultures. […] The murine HDL was used at 100 μg cholesterol/ml.

[4] = test system: apo E null mice; assay: LDL susceptibility to oxidation: ability of LDL from apoE null mice given oral peptides to induce monocyte chemotactic activity; type: in vivo; settings: added to the drinking water, 24 hrs (FIG. 5)
Method: FIG. 5 illustrates the effect of oral apo A-1 peptide mimetic and apoJ peptide on LDL susceptibility to oxidation. […] After 24 hrs blood was collected from the mice shown in FIG. 4, plasma fractionated by FPLC and fractions containing LDL (designated as mLDL for murine LDL) were pooled and LDL susceptibility to oxidation as determined by induction of monocyte chemotactic activity was determined.
Murine LDL, mLDL, from mice that received the D-4F mLDL) or those that received the apoJ peptide (J mLDL) were added to artery wall cell cultures.

[5] = test system: apo E null mice; settings: added to the drinking water, 24 hrs, human artery wall co-culture (FIG. 6)
Method: FIG. 6 illustrates the effect of oral apoA-1 peptide mimetic and apoJ peptide on HDL protective capacity. […] After 24 hrs blood was collected, plasma fractionated by FPLC and fractions containing HDL (designated as mHDL) were pooled and HDL protective capacity against PAPC oxidation as determined by the induction of monocyte chemotactic activity was determined. For the assay controls the culture wells received no lipoproteins (no additions), the phospholipid PAPC at 20 μg /ml+HPODE, at 1.0 μg/ml, or PAPC+HPODE plus standard normal human HDL (at 350 μg HDL cholesterol/ml and designated as +Cont. h HDL).
For testing the murine HDL, PAPC+HPODE together with murine HDL (+F mHDL or +J mHDL) were added to artery wall cell cultures. […] The murine HDL was used at 100 μg cholesterol/ml.

[6] = test system: PON1; settings: apo E null mice, added to the drinking water, 24 hrs, plasma (FIG. 7)
Method: After 24 hrs blood was collected and plasma was assayed for PON1 activity.

Ac-LLEQLNEQFNWVSRLANLTQGE-NH2 [D-J336]
times more potent than D-4F in preventing LDL oxidation by artery wall cells [1]: 10-25 times
activity of mouse HDL in preventing control LDL from inducing monocyte chemotactic activity, compared with control human HDL ([2]; LDL receptor null mice, 0.25 or 0.5 mg per ml drinking water, 24 or 48 hrs, mouse HDL at 100 μg/ml): as active as 350 μg/ml of control human HDL
effectiveness compared with D4F in preventing LDL-induced monocyte chemotactic activity ([2]; given orally to LDL receptor null mice (FIG. 3)): essentially as effective as D4F
potency compared with D-4F in enhancing HDL protective capacity [3]: as potent as D4F
potency compared with D-4F in enhancing HDL protective capacity ([3]; listed as D-J peptide): as potent as D-4F
activity of murine HDL compared with normal human HDL against LDL-induced monocyte chemotactic activity ([3]; apoE null mice, peptide in drinking water, 24 hrs, murine HDL at 100 μg/ml): as active as 350 μg/ml of normal human HDL
potency compared with D-4F in rendering LDL resistant to oxidation by human artery wall cells (induction of monocyte chemotactic activity) [4]: lightly more potent than D-4F
potency compared with D-4F in rendering LDL resistant to oxidation by human artery wall cells (induction of monocyte chemotactic activity) ([4]; listed as DJ336): slightly more potent than D4F
potency compared with D-4F in causing HDL to inhibit oxidation of PAPC by HPODE (generation of monocyte chemotactic activity) [5]: as potent as D-4F
potency compared with D-4F in causing HDL to inhibit oxidation of PAPC by HPODE (generation of monocyte chemotactic activity) ([5]; listed as DJ336): as potent as D4F
potency compared with D-4F in increasing paraoxonase activity [6]: at least as potent as D-4F
potency compared with D-4F in increasing paraoxonase activity ([6]; listed as DJ336): at least as potent as D4F

— patent US7638494B2, “G-type peptides to ameliorate atherosclerosis” (The Regents of the University of California, priority 2002, dated 2009)
